Assay [1] deals with T1, Prostaglandin G/H synthase 1 (Ovis aries, UniProt P05979).
T1 sequence (P05979 whole entry): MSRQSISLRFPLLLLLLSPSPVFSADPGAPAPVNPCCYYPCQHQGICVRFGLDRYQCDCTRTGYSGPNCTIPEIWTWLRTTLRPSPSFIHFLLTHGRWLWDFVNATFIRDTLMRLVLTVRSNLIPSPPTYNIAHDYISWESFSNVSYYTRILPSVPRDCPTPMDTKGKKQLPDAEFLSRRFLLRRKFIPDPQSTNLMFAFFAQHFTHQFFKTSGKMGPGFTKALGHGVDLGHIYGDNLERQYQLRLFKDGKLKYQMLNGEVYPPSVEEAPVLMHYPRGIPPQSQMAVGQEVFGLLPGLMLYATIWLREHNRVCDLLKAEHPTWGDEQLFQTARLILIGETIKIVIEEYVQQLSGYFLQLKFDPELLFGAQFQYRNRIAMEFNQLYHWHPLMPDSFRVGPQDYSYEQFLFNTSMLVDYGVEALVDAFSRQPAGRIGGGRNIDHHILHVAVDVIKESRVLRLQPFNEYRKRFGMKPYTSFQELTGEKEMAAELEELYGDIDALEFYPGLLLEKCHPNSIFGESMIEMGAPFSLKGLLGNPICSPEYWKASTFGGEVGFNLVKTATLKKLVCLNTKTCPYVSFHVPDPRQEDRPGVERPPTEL
The experiment in a line: COX Inhibition Assay. The note with it: pH 8; 37 °C. The procedure: (§1) Stock solutions of test compounds were dissolved in a minimum volume of dimethyl sulphoxide (DMSO) toobtain 0.001, 0.01, 0.1, 1, 10, 100, and 500 μM in a final volume of 1 mL. In brief, haematin reconstituted purified COX-1 and COX-2 enzymes in a reaction buffer containing Tris-hydrochloric acid (HCl) (0.1 M, pH 8.0), 5 mM ethylenediaminetetraacetic acid (EDTA), and 2 mM phenol were pre-incubated at room temperature for 1 h with test compounds followed by the addition of AA (100 μM)for 2 min at 37°C. Reactions were terminated by adding 50 μL of 1 M HCl followed by the addition of 100 μL of stannous chloride.

In assay [2] the target is T2, Prostaglandin G/H synthase 2 (Ovis aries, UniProt P79208).
T2 sequence (P79208 whole entry): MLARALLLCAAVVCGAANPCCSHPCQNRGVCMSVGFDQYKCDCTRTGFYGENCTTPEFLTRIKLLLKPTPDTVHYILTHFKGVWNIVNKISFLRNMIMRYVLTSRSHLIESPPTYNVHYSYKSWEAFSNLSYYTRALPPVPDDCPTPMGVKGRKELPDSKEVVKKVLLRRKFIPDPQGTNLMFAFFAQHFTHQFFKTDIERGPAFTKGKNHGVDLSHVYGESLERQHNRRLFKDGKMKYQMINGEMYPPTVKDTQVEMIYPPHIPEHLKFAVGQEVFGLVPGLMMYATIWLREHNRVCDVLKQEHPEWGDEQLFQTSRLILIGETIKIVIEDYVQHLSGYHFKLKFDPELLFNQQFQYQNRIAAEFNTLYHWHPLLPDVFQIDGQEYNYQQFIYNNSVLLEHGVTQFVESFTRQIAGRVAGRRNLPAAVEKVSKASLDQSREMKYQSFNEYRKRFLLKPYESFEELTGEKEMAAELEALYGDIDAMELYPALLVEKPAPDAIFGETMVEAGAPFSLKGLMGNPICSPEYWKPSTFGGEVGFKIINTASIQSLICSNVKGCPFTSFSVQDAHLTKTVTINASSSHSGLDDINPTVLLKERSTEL
As to the kind of experiment: COX Inhibition Assay. Particulars: pH 8; 37 °C. As to the method: as §1

These results are taken from BindingDB's records for doi:10.3109/14756366.2010.550890 (Jamia Hamdard University, 2011).

SMILES strings stand for the structures. Bounds are passed on as bounds.

Broadly, the IC50 is the concentration that gives 50% inhibition. A low value points to greater potency. Regarding `Cc1ccccc1Nc1nnc(-c2cc3ccccc3oc2=O)o1` [3-(5-o-Tolylamino-[1,3,4]oxadiazol-2-yl)-chromen-2-one (6e)], the IC50 is > 100 µM in assay [1] and 36.6 µM in assay [2].
For the compound `O=c1oc2ccccc2cc1-c1nnc(-c2ccc(Cl)cc2Cl)o1` [3-[5-(2,4-Dichloro-phenyl)-[1,3,4]oxadiazol-2-yl]-chromen-2-one (4e)], the values for the IC50 in assay [1] and in assay [2] were 41.6 µM and 0.4 µM, respectively.
As for `O=c1oc2ccccc2cc1-c1nnc(-c2ccccc2)o1` [3-(5-Phenyl-[1,3,4]oxadiazol-2-yl)-chromen-2-one (4a)], the IC50 is < 100 µM in assay [1] and 8.7 µM in assay [2].
`O=c1oc2ccccc2cc1-c1nnc(Nc2ccc(Cl)cc2)o1` [3-[5-(4-Chloro-phenylamino)-[1,3,4]oxadiazol-2-yl]-chromen-2-one (6b)]: the IC50 in assay [1] and in assay [2] was > 100 µM throughout.
For `O=c1oc2ccccc2cc1-c1nnc(-c2ccc(Cl)cc2)o1` [3-[5-(4-Chloro-phenyl)-[1,3,4]oxadiazol-2-yl]-chromen-2-one (4b)], the IC50 in assay [1] turned out to be 35 µM; in assay [2] it was 1.2 µM.
Consider `O=C(Nc1nnc(-c2cc3ccccc3oc2=O)o1)c1ccc(Cl)cc1` [4-Chloro-N-[5-(2-oxo-2H-chromen-3-yl)-[1,3,4]oxadiazol-2-yl]-benzamide (8b)], for which the 50% inhibitory concentration (IC50) in assay [1] and in assay [2] was > 100 µM throughout.
On to `Cc1ccc(-c2nnc(-c3cc4ccccc4oc3=O)o2)cc1` [3-(5-p-Tolyl-[1,3,4]oxadiazol-2-yl)-chromen-2-one (4c)], for which the IC50 is > 100 µM in assay [1] and 1.18 µM in assay [2].
